Source: the Kinase Knowledgebase extract (Sharma et al. 2016)

The compounds below were run against EGFR (mouse) (UniProt P00533). Details: baf3.
`O=C(O)c1ccc(-c2cc3c(Nc4cccc(Cl)c4)ncnc3[nH]2)cc1` gave an IC50 of 12 nM. For `COc1cc2ncnc(Nc3ccc(F)c(Cl)c3)c2cc1OCCN1CCOCC1`, the IC50 was 20 nM. Work on `O=C(O)c1cc(N(Cc2ccccc2O)Cc2cc(O)ccc2O)ccc1O` yielded an IC50 of 12 nM.

Each compound was assayed against EGFR (human) (UniProt P00533). Details: mcf-10a.
Chain of EGFR (human) (P00533 whole entry, looked up): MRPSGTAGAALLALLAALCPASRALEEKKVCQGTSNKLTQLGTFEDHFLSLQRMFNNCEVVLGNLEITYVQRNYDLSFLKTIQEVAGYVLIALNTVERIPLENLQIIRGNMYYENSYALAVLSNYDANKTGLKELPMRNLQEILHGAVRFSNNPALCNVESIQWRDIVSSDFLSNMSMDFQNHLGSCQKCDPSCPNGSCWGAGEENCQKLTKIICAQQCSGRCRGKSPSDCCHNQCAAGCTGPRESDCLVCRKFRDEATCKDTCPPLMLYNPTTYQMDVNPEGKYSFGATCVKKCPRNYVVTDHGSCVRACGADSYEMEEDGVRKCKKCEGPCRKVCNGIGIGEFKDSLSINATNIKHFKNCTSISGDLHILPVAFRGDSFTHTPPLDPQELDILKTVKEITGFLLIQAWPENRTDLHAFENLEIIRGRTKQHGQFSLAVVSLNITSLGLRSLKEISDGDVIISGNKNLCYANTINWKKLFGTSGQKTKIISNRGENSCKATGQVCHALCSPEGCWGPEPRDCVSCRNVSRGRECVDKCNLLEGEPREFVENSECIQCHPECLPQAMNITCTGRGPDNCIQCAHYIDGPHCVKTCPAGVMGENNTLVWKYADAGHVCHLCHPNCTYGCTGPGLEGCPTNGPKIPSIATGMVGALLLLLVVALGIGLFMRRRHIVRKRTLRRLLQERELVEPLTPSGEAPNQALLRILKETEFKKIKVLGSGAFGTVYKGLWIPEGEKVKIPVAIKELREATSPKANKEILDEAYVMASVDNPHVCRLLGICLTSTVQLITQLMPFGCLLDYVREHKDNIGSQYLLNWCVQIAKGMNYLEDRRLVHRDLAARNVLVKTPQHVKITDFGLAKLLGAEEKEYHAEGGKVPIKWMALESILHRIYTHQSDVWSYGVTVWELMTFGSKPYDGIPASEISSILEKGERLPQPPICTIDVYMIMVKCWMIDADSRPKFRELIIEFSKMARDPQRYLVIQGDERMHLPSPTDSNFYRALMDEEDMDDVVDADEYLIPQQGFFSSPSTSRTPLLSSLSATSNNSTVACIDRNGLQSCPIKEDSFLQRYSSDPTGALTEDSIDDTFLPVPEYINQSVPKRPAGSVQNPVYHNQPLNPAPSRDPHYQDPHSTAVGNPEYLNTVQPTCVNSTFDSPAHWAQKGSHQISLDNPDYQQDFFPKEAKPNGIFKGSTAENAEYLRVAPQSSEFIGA
`CCOc1cc2ncnc(Nc3ccccc3F)c2cc1OCC` was tested, and the IC50 was 141 nM. For `CCOc1cc2ncnc(Nc3cccc(Br)c3)c2cc1OCC`, the IC50 was 78 nM. Compound `COc1cc2ncnc(Nc3ccccc3F)c2cc1OC` has an IC50 of 179 nM. With `CCOc1cc2ncnc(Nc3cccc(Cl)c3)c2cc1OCC` the IC50 was 108 nM. In the case of `CCOc1cc2ncnc(Nc3cccc(I)c3)c2cc1OCC`, the IC50 is reported as 153 nM. Work on `COc1cc2ncnc(Nc3ccc(F)cc3)c2cc1OC` yielded an IC50 of 612 nM. With `COc1cc2ncnc(Nc3cc(F)cc(C(F)(F)F)c3)c2cc1OC` the IC50 was 1630 nM. Compound `CCOc1cc2ncnc(Nc3cc(F)cc(C(F)(F)F)c3)c2cc1OCC` has an IC50 of over 3000 nM. In the case of `CCOc1cc2ncnc(Nc3ccc(F)cc3)c2cc1OCC`, the IC50 is reported as 622 nM. Work on `CCOc1cc2ncnc(Nc3cccc(F)c3)c2cc1OCC` yielded an IC50 of 99 nM. `COc1cc2ncnc(Nc3cccc(I)c3)c2cc1OC` gave an IC50 of 585 nM. With `CCOc1cc2ncnc(NCc3ccc(F)cc3)c2cc1OCC` the IC50 was 188 nM.
